{
  "source": "patent US6518302B1",
  "about": "“Remedies” (Takara Shuzo Co., Ltd., priority 1999, dated 2003)",
  "key": {"[1]": {"tested_on": "HL-60 (ATCC CCL-240) cells", "assay": "Apoptosis morphology in HL-60 cells under optical microscope", "assay_type": "cell-based, Human", "details": "24 hours", "description": "(§1) HL-60 (ATCC CCL-240) cells were cultured at 37° C. in RPMI 1640 medium (Bio Whittaker) containing 10% fetal calf serum (JRH) which had been treated at 56° C. for 30 minutes and suspended in RPMI 1640 medium at a concentration of 2.5×10^5 cells/4.5 ml. […] each of aqueous solutions of the compound (2) at a concentration of 10, 50 or 100 mM, the compound (7) at a concentration of 500, 1000 or 1500 μM, the compound (9) at a concentration of 750, 1500 or 3000 μM, the compound (11) at a concentration of 750, 1500 or 3000 μM, or the compound (14) at a concentration of 750, 1500 or 3000 μM was added to 4.5 ml of the suspension. The mixtures were incubated at 37° C. for 24 hours in the presence of 5% CO2. The cultured cells were examined under an optical microscope."}, "[2]": {"tested_on": "HL-60 (ATCC CCL-240) cells", "assay": "Measurement of apoptotic cells using FACScan", "assay_type": "cell-based, Human", "details": "HL-60 cells, cultured for 24 or 48 hours", "description": "as §1, with “CO2. Measurement of apoptotic cells using FACScan as described in Saibo Kogaku, Bessatsu (Cell Technology, Suppl.) Jikken Protocol Series: Apoptosis Jikken Protocol (Experimental Protocol Series: Experimental Protocols for Apoptosis) (Shujun-sha) pp. 129-130 and analysis of DNA fragmentation as described in Bio Manual UP Series: […] Apoptosis Jikken-ho (Bio Manual UP Series: Current Experimental Methods for Apoptosis) (Yodo-sha) pp. 61-63 were carried out using cells” for “CO2. The”, “cultured for 24 or 48 hours in the same manner as that described above.” for “cultured cells were examined under an optical microscope.”"}, "[3]": {"tested_on": "PGE2 production in celiac macrophages", "assay": "PGE2 production of celiac macrophages from orally dosed mice", "assay_type": "in vivo", "details": "1% suspension in olive oil, forced oral administration once a day, 12 times in 15 days, 10 or 30 ml/kg, ddY mice", "description": "The compound (7) in Example 1 was suspended in olive oil (Nacalai Tesque) at a concentration of 1% to prepare a 1% suspension of the compound (7). The 1% suspension of the compound (7) prepared as described above was administered to ddY mice (Japan SLC, female, 7 weeks old) by forced oral administration once a day, 12 times in 15 days, at a dosage of 10 or 30 ml/kg. Tap water was similarly administered by forced oral administration as a control. Each group consisted of 3 mice. Thereafter, 4 ml of RPMI 1640 medium (Bio Whittaker, Code. 12-702F) containing 10% fetal calf serum was intraperitoneally injected. Media removed from 3 mice after extensive massage were combined to obtain celiac cells. The celiac cells were suspended in RPMI 1640 medium containing 10% fetal calf serum at a concentration of 10^6 cells/ml. 500 μl of the suspension was added to each well of a 48-well microtiter plate and the plate was incubated at 37° C. for 2 hours in the presence of 5% CO2. Adhesive cells obtained by removing the culture supernatant were used as celiac macrophages. […] After the plate was incubated for additional 12 hours, the amount of prostaglandin E2 (PGE2) was measured. […] After cultivation, the amount of prostaglandin E2 in the culture supernatant was measured using Prostaglandin E2 ELISA Kit (Neogen, Code. 404110). […]"}},
  "data": [
    {"smiles": "O=C[C@H](O)[C@H]1OC[C@@H](O)[C@@H]1OC(=O)c1ccccc1", "note": "[Compound (7), 4-O-benzoyl-3,6-anhydro-D-galactose]", "values": [
      {"measurement": "final concentration at which condensation of nuclei, shrinking of cells and formation of apoptotic bodies were observed", "setting": "[1]", "result": "≥ 100", "unit": "µM"},
      {"measurement": "final concentration at which apoptotic cells were observed", "setting": "[2]", "result": "≥ 100", "unit": "µM"},
      {"measurement": "activity of inhibiting PGE2 production in celiac macrophages (LPS)", "setting": "[3]", "result": "remarkable activity of inhibiting PGE2 production"}
    ]}
  ]
}
